Results as given in patent US12528796B2, “Modulators of RAS GTPase” (Tosk, Inc., priority 2019, dated 2026).

system: SW620 cells (KRAS-G12V); test: Cell proliferation / cytotoxicity assay (CellTiter-Glo 2.0); assay type: cell-based; settings: Homo sapiens, SW-620, 72 h, SW620 cell line (KRAS-G12V), 72 hours incubation, luminescence (CellTiter-Glo 2.0); read-out: 5W620 IC50
Protocol: Compounds are assayed for inhibition of cell proliferation and killing cancer cells. Cytotoxicity assays are conducted according to the following general procedure. SW620 cells (ATCC CCL-227) are maintained in DMEM Low Glucose (Corning 10-014-CV) media supplemented with 10% fetal bovine serum and 1% PenStrep and grown at 37° C. in 5% CO2. Cells are plated into 96 well flat bottom plates (2 million/plate, ˜20,000/well, 200 μL media/well). The cells are allowed to settle and adhere to the plate bottom overnight. Compounds are diluted in media from a 10 mM stock solution starting at 50 μM, using 2-fold dilutions, in a column in a 96-well plate. Media is removed from the plate containing cells and replaced with media containing diluted compounds. Plates are incubated 72 hours at 37° C. in 5% CO2. Plates were allowed to come to room temperature and 100 μL CellTiter-Glo 2.0 reagent (Promega, G924C) is added at room temperature. Plates are shaken for 2 minutes, then allowed to stand for 15 minutes. Luminescence is read with FLx800 (BioTek Instruments). Data is plotted with GraphPad Prizm 8.0.
Dose response curves for the cytotoxicity of exemplary compounds against SW620 (KRAS-G12V) and MIA PaCa-2 (KRAS-G12C) cell lines are shown in FIG. 1A-1J.

**Q.** With `Cc1nc(NC2CCN(Cc3ccc(Cl)cc3)CC2)nc2ccc(-c3cc(F)cc4c3OC(C)(C)C(=O)N4)cc12` [Compound 30] as the compound, how does the IC50 read?
**A.** < 5 µM

**Q.** How did the IC50 turn out when `COc1ncccc1-c1ccc2nc(NC3CCN(Cc4ccc(Cl)cc4)CC3)nc(C)c2c1` [Compound 55] was run?
**A.** < 5 µM

**Q.** How did the IC50 turn out when `Cc1nc(N[C@H]2CC[C@@H](NC3Cc4cccc(Cl)c4C3)CC2)nc2ccc(Br)cc12` (some centres unmarked) [Compound 67] was run?
**A.** 5 to 10 µM

**Q.** Which IC50 does the source give for `COc1cnccc1-c1ccc2nc(NC3CCN(Cc4ccc(Cl)cc4)CC3)nc(C)c2c1` [Compound 49] here?
**A.** < 5 µM

**Q.** How did the IC50 turn out when `Cc1nc(NC2CCN(Cc3ccc(Cl)cc3)CC2)nc2ccc(-c3cncc4[nH]ccc34)cc12` [Compound 58] was run?
**A.** 5 to 10 µM

**Q.** `Cc1nc(NC2CCN(C(=O)c3ccc(Cl)cc3)CC2)ncc1-c1ccccc1C(C)(O)c1ccccc1` (centres unmarked) [Compound 38] was tested. Which IC50 did it give?
**A.** 5 to 10 µM

**Q.** With `Cc1nc(NC2CCN(Cc3ccc(Cl)cc3)CC2)nc2ccc(-c3cccc4c3NC(=O)CC4)cc12` [Compound 65] as the compound, how does the IC50 read?
**A.** < 5 µM

**Q.** Which IC50 does the source give for `CC(=O)N1CCc2c(cccc2-c2ccc3nc(NC4CCN(C(=O)c5ccc(Cl)cc5)CC4)nc(C)c3c2)C1` [Compound 8] here?
**A.** 5 to 10 µM
